Data from publication PMC11984905, “Chiral Switch of Gadopiclenol: New Standards in MRI Probes” (Advanced Science, 2025).
Values joined by “and” are separate entries in the source; they are usually repeats but may differ in a detail not shown here. Equal entries are not always repeated. Where two headings read alike, the source gives them in different places. Marks after values point to notes of the source that are not given here.

Legend:
[1] = 1H NMRD profiles and 17O NMR relaxometry in water; assay type: physicochemical; conditions: for q: number of coordinated water molecules
Description: The magnetic‐field dependence of the longitudinal relaxation rate of water protons (^1H NMRD) were measured in aqueous solution by using a variable field relaxometer equipped with an HTS‐110 3T Metrology Cryogen‐free Superconducting Magnet (Mede, Italy), operating in the overall range of proton Larmor frequencies of 20–120 MHz (0.47–3.00 T). The measurements were performed using the standard inversion recovery sequence (20 experiments, 3 scans) with a 90° pulse width of 3.5 µs. The temperature was controlled with a Stelar VTC‐91 heater airflow. Additional points in the 0.01–10 MHz frequency range were collected on a Fast‐Field Cycling (FFC) Stelar SmarTracer Relaxometer. T 1 values at 500 MHz were collected on a Bruker Avance III NMR spectrometer operating at 11.7 T. The concentration of Gd^3+ in the solutions was determined by using bulk magnetic susceptibility (BMS) shift measurements performed at 11.7 T. For the measurements in the biological fluid, lyophilized plasma matrix (Siemens Healthcare) was added to 1 mL of [Gd(ent‐L2)] (1.0 mM) or Seronorm (Sero) was solubilized in 5 mL [Gd(ent‐L2)] (1.0 mM) solution. ^1H NMRD of the final solution was measured at 310 K.
The spectra were acquired on a Bruker Avance III spectrometer (11.7 T) using a 5 mm probe under temperature control. An aqueous solution of the complexes ([GdL] = 10–15 mM) was enriched to ca. 2.0% of the ^17O isotope (Cambridge Isotope). The transverse relaxation rates (R 2) were measured as a function of temperature in the 278−350 K range. The simultaneous fit of ^1H NMRD and ^17O NMR profiles data was performed using the Micromath Scientist software (version 2.0, Salt Lake City, UT, USA).

[2] = Kinetic inertness: dissociation of Gd(III)-complexes in 0.01–1.0 M HCl followed by HPLC; assay type: physicochemical; conditions: for k d at pH = 7.4: dissociation rate calculated at pH 7.4, 25 °C; for k1: proton-assisted dissociation, [H+]≤0.15 M: [Na+]+[H+]=0.15 M
Description: The kinetic inertness of the Gd(III)‐complexes with the different isomers formed by rac‐L1 and rac‐L2 was characterized by the rates of the dissociation reactions taking place in 0.01–1.0 M HCl solution. The dissociation reactions were followed by measuring the integral values of the Gd(III)‐complexes with the different isomers of rac‐L1 and rac‐L2 ligands with HPLC. The conditions of the HPLC experiments for the kinetic studies of the Gd(III)‐complexes with rac‐L1 and rac‐L2 ligands are summarized in Tables S1 and S2 (Supporting Information), respectively. The samples were kept at 25 °C in a well‐closed vessel. For the HPLC analysis, 100 µL samples were withdrawn from the solutions. The measurements were performed with 0.2 mM solution of Gd(III)‐complexes. The pseudo‐first‐order rate constants (k d) were calculated by fitting the HPLC integral – t data pairs to Equation (1). (1) At=Ar−Ave^−kdt+Av where A r, A v, and A t are the integral values of the reactants, the product, and reaction time t. The temperature was maintained at 25 °C and the ionic strength of the solutions was kept constant at [H^+]≤0.15 M, [HCl]+[NaCl] = 0.15 M. The calculation of the kinetic parameters was performed by the fitting of the absorbance – time and relaxation rate – time data pairs with the Micromath Scientist computer program (version 2.0, Salt Lake City, UT, USA).
The dissociation reactions of Gd(III)-complexes with the different isomers formed by rac-L1 and rac-L2 have been studied by HPLC method (Tables S1 and S2) at 25 °C in 0.01 – 1.0 M HCl solution to guarantee the pseudo-first-order kinetic condition. Area values as a function of time for the dissociation reactions of Gd(III)-complexes formed with the different stereoisomers of rac-L1 obtained at 25 °C in 1.0 M HCl solution are shown in Figure S48.
In the presence of HCl excess, the decomplexation of Gd(III)-complexes can be treated as a pseudo-first-order process and the reaction rate can be expressed by Equation (S9), where kd is a pseudo-first-order rate constant, [GdL]t and [GdL]tot are the concentrations of the GdL species at time t and the total concentration of the complex, respectively.
The rates of the dissociation reactions have been studied at different concentrations of HCl ([HCl]=0.01 – 1.0 M, 25 °C). The kd values obtained for the Gd(III)-complexes with the different isomers of rac-L1 and rac-L2 ligands as a function of [H^+] are shown in Figures S49 and S50.
The obtained kd pseudo-first order rate constants are directly proportional to the concentration of H^+. The increase in the kd values with increasing concentration of H^+ can be interpreted in terms of the proton assisted dissociation of Gd(III)-complexes. […] The proton assisted dissociation of Gd(III)-complexes might be explained by the equilibrium formation of a protonated *Gd(HL) intermediate (Equation (S11)), which dissociates spontaneously (Equation (12)).
where k0, and k1 = kGdHL×K^HGdHL are the rate constants characterizing the spontaneous and proton-assisted dissociation of Gd(III)-complexes. The protonation constant (K^HGdHL) of Gd(DOTA)-like complexes are very small (Gd(DOTA): K^HGdHL =14).^[22] By considering very low protonation constant of Gd(III)-complexes with A, C and D isomers of rac-L1 and A’, C’ and D’ isomers of rac-L2 ligands (K^HGdHL<<10), the denominator of Equation (S14) (1>> K^HGdHL [H^+]) can be neglected, so Equation (S14) can be simplified in the form of Equation (S15). The k0 and k1 values of the Gd(III) complexes with A, C and D isomers of rac-L1, and A’, C’ and D’ isomers of rac-L2 ligands have been calculated by fitting of the kinetic data (Figures S49 and S50) to Equation (S15).
The k1 rate and logK^HGdHL protonation constants characterizing the acid-catalyzed decomplexation of Gd(III)-complexes formed with the different stereoisomers of rac-L1 and rac-L2 are presented and compared with those of [Gd(PCTA)], [Gd(DOTA)]^-, [Gd(HP-DO3A)] and [Gd(BT-DO3A)] in Table S19.

[3] = 0.15 M NaCl, 25 °C; cited from earlier work
[4] = 25 °C, cited from earlier work

**Q.** For `O=C([O-])CCC(C(=O)[O-])N1CCN(C(CCC(=O)[O-])C(=O)[O-])Cc2cccc(n2)CN(C(CCC(=O)[O-])C(=O)[O-])CC1.[Gd+3]` (mixture of isomers) [[Gd(rac‐L1)]^3−] [2,2’,2’’-[3,6,9,15-tetraazabicyclo[9.3.1]pentadeca-1(15),11,13-triene-3,6,9-triyl]tris(4-carboxybutanoate)gadolinium], which “^298K r 1 [1.5 T]” value ([1]; 298 K, 1.5 T, water) is on record?
**A.** Its value is 9.4 mM⁻¹ s⁻¹.

**Q.** What about the “r 1 ^310K [1.5 T]” value ([1]; 310 K, 1.5 T, water) of the same compound?
**A.** The value was 6.8 mM⁻¹ s⁻¹.

**Q.** What about the τ R ([1]; Table 2) of the same compound?
**A.** Its τ R is 98 ± 2 ps.

**Q.** What about the τ R ([1]; Table S20, 298 K) of the same compound?
**A.** The τ R was 98±2 ps.

**Q.** What about the ER ([1]; fixed in the fitting procedure) of the same compound?
**A.** Its ER is 22^b) kJ mol^-1.

**Q.** And the q ([1]; fixed in the fitting procedure)?
**A.** Its q is 2.

**Q.** What about the q ([1]; fixed in the fitting procedure, listed as [Gd(rac-L1)]^3-) of the same compound?
**A.** The q was 2^b).

**Q.** What about the “τ M1” value ([1]; residence time of coordinated water 1, 298 K) of the same compound?
**A.** Its value is 103 ± 5 ns.

**Q.** What about the “τ M2” value ([1]; residence time of coordinated water 2, 298 K) of the same compound?
**A.** The value was 14 ± 2 ns.

**Q.** What does the source list for `O=C(O)CCC(C(=O)[O-])N1CCN(C(CCC(=O)O)C(=O)[O-])Cc2cccc(n2)CN(C(CCC(=O)O)C(=O)[O-])CC1.[Gd+3]` (racemic) [[Gd(rac-L1)] A (RSR/SRS)]?
**A.** k d at pH = 7.4 [2]: 1.84×10^-12 s^−1; k d at pH = 7.4 ([2]; listed as RSR/SRS (A)): 1.84 × 10^−12 s^−1; k1 ([2]; 25 °C): (4.6±0.2) ×10^-5 M^-1s^-1

**Q.** What does the source list for `O=C(O)CCC(C(=O)[O-])N1CCN(C(CCC(=O)O)C(=O)[O-])Cc2cccc(n2)CN(C(CCC(=O)O)C(=O)[O-])CC1.[Gd+3]` (racemic) [[Gd(rac-L1)] B (RSS/SRR)]?
**A.** k d at pH = 7.4 [2]: 1.28×10^-11 s^−1; k d at pH = 7.4 ([2]; listed as RSS/SRR (B)): 1.28 × 10^−11 s^−1; k1 ([2]; 25 °C): (3.2±0.4) ×10^-4 M^-1s^-1; K^HGd(HL) ([2]; protonation constant of the *Gd(HL) intermediate, 25 °C): 2.0 ± 0.4 M⁻¹

**Q.** What does the source list for `O=C(O)CCC(C(=O)[O-])N1CCN(C(CCC(=O)O)C(=O)[O-])Cc2cccc(n2)CN(C(CCC(=O)O)C(=O)[O-])CC1.[Gd+3]` (racemic) [[Gd(rac-L1)] D (RRS/SSR)]?
**A.** k d at pH = 7.4 [2]: 4.95×10^-13 s^−1; k d at pH = 7.4 ([2]; listed as RRS/SSR (D)): 4.95 × 10^−13 s^−1; k1 ([2]; 25 °C): (1.2±0.1) ×10^-5 M^-1s^-1

**Q.** Which “k d at pH = 7.4” value [2] does the source give for `O=C(CC[C@H](C(=O)[O-])N1CCN([C@@H](CCC(=O)NCC(O)CO)C(=O)[O-])CCN([C@H](CCC(=O)NCC(O)CO)C(=O)[O-])Cc2cccc(n2)C1)NCC(O)CO.[Gd+3]` (relative stereo) [[Gd(rac-L2)] A’ (RSR/SRS)] here?
**A.** Its value is 1.85×10^-12 s^−1.

**Q.** And the “k d at pH = 7.4” value ([2]; listed as RSR/SRS (A′))?
**A.** The value was 1.85 × 10^−12 s^−1.

**Q.** What about the k1 ([2]; 25 °C) of the same compound?
**A.** The k1 was “(4.7±0.1) ×10^-5 M^-1s^-1”.

**Q.** Which results are given for `CC1(N(CC(=O)O)CC(=O)O)CN(CC(=O)O)CCN(CC(=O)O)C1` [AAZTA]?
**A.** logK1^H [3]: 10.06; logK2^H [3]: 6.50; logK3^H [3]: 3.77; logK4^H [3]: 2.33; logK5^H [3]: 1.51

**Q.** Which “K^HGd(HL)” value ([4]; 1.0 M KCl) does the source give for `O=C([O-])CN1CCN(CC(=O)[O-])Cc2cccc(n2)CN(CC(=O)[O-])CC1.[Eu+3]` [[Eu(PCTA)]] here?
**A.** The value was 1.72 M⁻¹.

**Q.** What about the “k d at pH = 7.4” value ([4]; pH 7.4, 1.0 M KCl) of the same compound?
**A.** The value was 2.0 × 10^−11 ([Eu(PCTA)]) s^−1 and 2.0×10^-11 s^−1.

**Q.** With `CC(O)CN1CCN(CC(=O)[O-])CCN(CC(=O)[O-])CCN(CC(=O)[O-])CC1.[Gd+3]` (stereo not drawn) [[Gd(HP-DO3A)]] as the compound, how does the k1 ([4]; 0.15 M NaCl) read?
**A.** The k1 was 0.00029 M⁻¹ s⁻¹.

**Q.** What about the k1 [4] of the same compound?
**A.** Its k1 is 0.00026 M⁻¹ s⁻¹.

**Q.** What about the “k d at pH = 7.4” value ([4]; pH 7.4, 0.1 M NaCl) of the same compound?
**A.** Its value is 1.0×10^-11 s^−1.

**Q.** What about the “k d at pH = 7.4” value ([4]; pH 7.4, 0.15 M NaCl) of the same compound?
**A.** The value was 1.2×10^-11 s^−1.
